Key:
[1] = system: hES-derived cardiomyocytes; experiment: Beating of hES-derived cardiomyocytes in response to pharmacological agonists; assay type: cell-based, human; settings: hES2/END-2 co-culture derived cardiomyocytes
Experimental: (§1) END-2 cells and hES cells were cultured as described in Example 1. The hES2 cell line from ES Cell International Pte Ltd was used in all experiments. […] Co-cultures were then grown for up to 6 weeks and scored for the presence of areas of beating muscle from 5 days onwards. HepG2 cells, a carcinoma cell line resembling liver parenchymal cells (Knowles et al, (1980) Science 209:497-9), were cultured in DMEM plus 10% FCS and passaged twice weekly. […] Hanging-drop cultures of P19 EC cells were initiated and maintained in DMEM/Ham's F12 (1:1), as described previously (Mummery et al, 1991), using regular FCS while bulk production of P19 embryoid bodies in the presence or absence of END-2 conditioned medium for isolation of RNA for Northem blotting, was in the presence of charcoal-stripped FCS, as described (Mummery et al, 1991) to reduce background levels of cardiomyocyte differentiation caused by lipophilic substances possibly with retinoid-like activity in FCS. P19 clone 6 were cultured in αMEM and treated αMEM conditioned by END-2 cells. For electrophysiology, beating aggregates were dissociated using collagenase and replated on gelatine-coated coverslips.
The majority of the experiments described here were carried out using the hES2 cell line (Reubinoff et al, 2000). […] Oct4 expression thus correlated with phenotypic characteristics of undifferentiated cells. hES cells were subcultured by transferring small clumps of undifferentiated cells either to new, mit.C-treated MEFs or confluent cultures of mit.C-treated END-2 cells. After approximately 5d under these conditions, epithelial cells became evident which over the next few days become fluid-filled cysts (FIG. 1A). […] In addition, by 10 d areas of rhythmically contracting cells in more solid aggregates become evident (FIG. 1A, 3e) with a variety of overall morphologies (FIG. 1B, 3e). […]

P19 EC cells [2] = experiment: Induction of beating muscle in replated P19EC aggregates (hanging drops); assay type: cell-based, mouse
Experimental: as §1, with “coverslips. […]” for “coverslips.”

Brachyury T = experiment: Northern blot of Brachyury T in P19EC aggregates; assay type: cell-based, mouse; settings: FIG. 10B
Experimental: as §1
RNA was isolated from P19 aggregates and poly A+ RNA selected, as described previously (Mummery et al, 1990, Dev. Biol. 142: 406413).
Background differentiation levels are reduced virtually to zero if the FCS is passed over an activated charcoal column (DCC-FCS) to remove residual retinoids; in addition, differentiation is blocked by activin (van den Eijnden-van Raaij et al, 1991, Mech. Dev. 33:157-166). […] The P19EC assay system was preferred because these cells are feeder independent for undifferentiated growth. […] Moreover, the induction of Brachyury T is blocked by the additional presence of activin (FIG. 10B), consistent with its ability to block the formation of beating muscle in aggregates. The transient expression of Brachyury T is similar to that observed during early mesoderm differentiation during gastrulation of the mouse embryo.

P19 EC cells [3] = settings: van den Eijnden-van Raaij et al, 1991; cited from earlier work

In the case of `C[N+](C)(C)CCOC(N)=O` [carbachol], the “beating of hES-derived cardiomyocytes in response to agonist” value (from here on “beating of hES-derived cardiomyocytes”) [1] is reported as “upregulated”.

With `CC(C)NCC(O)c1ccc(O)c(O)c1` (stereo not drawn) [isoprenaline] the “beating of hES-derived cardiomyocytes” value [1] was “upregulated”.

With `C[S+](C)[O-]` [DMSO, dimethyl sulphoxide] the “cardiomyocyte differentiation of P19EC aggregates” value (P19 EC cells [2]; control, FIG. 10) was “induces cardiomyocyte differentiation”, the “aggregates with beating muscle” value (P19 EC cells [2]; day 10, FIG. 10A) was “All aggregates beat” and the “Brachyury T expression (early mesoderm marker)” value (Brachyury T; aggregation phase, first 3 days) was “induced”.

For activin, the “effect on DMSO induced Brachyury T expression” value (Brachyury T; activin added with DMSO) is listed as “blocked”, the “effect on END-2 CM induced Brachyury T expression” value (Brachyury T; activin added with END-2 CM) is listed as “blocked” and the “effect on differentiation of P19EC aggregates to beating muscle” value (P19 EC cells [3]) is listed as “blocked”.

With `CNC[C@H](O)c1cccc(O)c1` [phenylephrine] the “beating of hES-derived cardiomyocytes” value [1] was “upregulated”.
